Experimental findings from PubChem BioAssay (NCI) are described below.

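Method: 48-hour compound exposure of cells in 96-well plates, five concentrations, linear interpolation of endpoints. The concentration for full growth arrest is given as TGI.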

Some test systems named below: A498 renal; HCC-2998 colon; OVCAR-3 ovarian; RPMI-8226 leukemia; SNB-19 CNS; UACC-62 melanoma; OVCAR-4 ovarian; SW-620 colon.
What all share (test): NCI tumour cell line growth inhibition, 48 h

`Cn1nc(-c2ccccc2)c2c(/C=C/c3ccccc3)onc2c1=O`: the TGI in the assay on A498 renal, in the assay on HCC-2998 colon, with OVCAR-3 ovarian, in the assay on RPMI-8226 leukemia, in the assay on SNB-19 CNS and with UACC-62 melanoma was more than 100 µM throughout.

As to `CC1=C(C(=O)Nc2cc(F)c(F)cc2F)C(c2ccc([N+](=O)[O-])cc2)C(C(=O)Nc2cc(F)c(F)cc2F)=C(C)N1`, the TGI is 87.1 µM with A498 renal; 60.5 µM with HCC-2998 colon; 80.8 µM in the assay on OVCAR-3 ovarian; more than 100 µM with OVCAR-4 ovarian; 45.1 µM with RPMI-8226 leukemia; more than 100 µM in the assay on SNB-19 CNS. The TGI with SW-620 colon was more than 100 µM.

Consider `CCSc1c2ccccc2c(-c2nc(F)nc(F)n2)n1CCc1ccccc1`, for which the TGI with A498 renal, in the assay on HCC-2998 colon, in the assay with OVCAR-3 ovarian, with OVCAR-4 ovarian, in the assay with RPMI-8226 leukemia and in the assay with SNB-19 CNS was more than 100 µM throughout. The TGI in the assay with SW-620 colon was more than 100 µM.

In the case of `COc1cccc(-c2cc(=O)c3ccccc3[nH]2)c1`, the TGI was more than 100 µM with A498 renal; 18.1 µM in the assay with HCC-2998 colon; more than 31.6 µM in the assay on OVCAR-3 ovarian; more than 100 µM with OVCAR-4 ovarian; more than 100 µM in the assay with RPMI-8226 leukemia; more than 100 µM in the assay on SNB-19 CNS. Besides, the TGI with SW-620 colon and with UACC-62 melanoma was more than 100 µM each time.

As for `CC1(c2ccc(Cl)cc2)C2C(=O)NC(=O)C1C(=O)NC2=O` (centres undefined), the TGI with A498 renal, in the assay with HCC-2998 colon, with OVCAR-3 ovarian, in the assay with OVCAR-4 ovarian, with RPMI-8226 leukemia and in the assay with SNB-19 CNS was more than 100 µM each time. Moreover, the TGI in the assay on SW-620 colon and in the assay with UACC-62 melanoma was more than 100 µM each time.

On to `CN1c2ccccc2N(C(=O)c2ccccc2)C(CC(=O)O)c2cccn21` (centres undefined), for which the TGI in the assay with A498 renal, with HCC-2998 colon, in the assay on OVCAR-3 ovarian, with OVCAR-4 ovarian, in the assay with RPMI-8226 leukemia and with SNB-19 CNS was more than 100 µM each time. Moreover, the TGI in the assay on SW-620 colon and in the assay with UACC-62 melanoma was more than 100 µM each time.

Turning to `CCOc1ccc(NC(=O)CC2C(=O)Nc3ccccc3S2(=O)=O)cc1` (centres undefined), the TGI with A498 renal, with HCC-2998 colon, in the assay on OVCAR-3 ovarian, in the assay with OVCAR-4 ovarian, in the assay with RPMI-8226 leukemia and in the assay on SNB-19 CNS was more than 100 µM throughout. This compound showed a TGI with SW-620 colon of more than 100 µM.

Regarding `O=C(NNc1ccccc1)/C(=C/c1ccc2c(c1)OCO2)NC(=O)c1ccccc1`, the TGI in the assay with A498 renal, in the assay on HCC-2998 colon, with OVCAR-3 ovarian, in the assay on OVCAR-4 ovarian, in the assay on RPMI-8226 leukemia and in the assay with SNB-19 CNS was more than 100 µM throughout. Also, in the assay with UACC-62 melanoma, the TGI was more than 100 µM.

In the case of `NC(=O)NC1C(C(N)=O)N(Cc2ccccc2)C(=O)N1Cc1ccccc1` (centres undefined), the TGI with HCC-2998 colon, in the assay with OVCAR-3 ovarian, with OVCAR-4 ovarian, in the assay with RPMI-8226 leukemia, with SNB-19 CNS and in the assay with SW-620 colon was more than 100 µM in each case. In addition, the TGI in the assay on UACC-62 melanoma was more than 100 µM.

Consider `Cc1c(/C=N/N(C)C)oc2c1cc(O)c1ncccc12`, for which the TGI was 82 µM with A498 renal; more than 100 µM with HCC-2998 colon; 96.6 µM in the assay on OVCAR-4 ovarian; more than 100 µM in the assay with RPMI-8226 leukemia; more than 100 µM in the assay on SNB-19 CNS; more than 100 µM in the assay with SW-620 colon. The compound further showed a TGI in the assay on UACC-62 melanoma of 45.9 µM.

Turning to `Cc1ccc(S(=O)(=O)N/N=C(/c2nc3ccc([N+](=O)[O-])cc3[nH]c2=O)C(O)c2ccc(C(O)/C(=N\NS(=O)(=O)c3ccc(C)cc3)c3nc4ccc([N+](=O)[O-])cc4[nH]c3=O)cc2)cc1` (centres undefined), the TGI was more than 100 µM with A498 renal; 77.4 µM with HCC-2998 colon; more than 100 µM in the assay on OVCAR-3 ovarian; more than 100 µM with RPMI-8226 leukemia; more than 100 µM in the assay with SNB-19 CNS; more than 100 µM with SW-620 colon. In the assay on UACC-62 melanoma, the TGI was more than 100 µM.

Consider `CC(C)(C)C(C#N)(C#N)c1ccc(C(C#N)(C#N)C(C)(C)C)nn1`, for which the TGI in the assay on HCC-2998 colon, in the assay on OVCAR-3 ovarian, with OVCAR-4 ovarian, in the assay with RPMI-8226 leukemia, with SNB-19 CNS and in the assay with SW-620 colon was more than 100 µM each time. The compound also registered a TGI in the assay on UACC-62 melanoma of more than 100 µM.

As for `O=C(Nc1nc2c(ncn2C2OC(CO)C(O)C2O)c(=O)[nH]1)c1ccccc1` (centres undefined), the TGI with A498 renal, in the assay on OVCAR-3 ovarian, in the assay with OVCAR-4 ovarian, with RPMI-8226 leukemia, in the assay with SW-620 colon and in the assay on UACC-62 melanoma was more than 100 µM in each case.

Turning to `Nc1ncnc2c1ncn2C1CC(OCc2ccccc2[N+](=O)[O-])C(CO)O1` (centres undefined), the TGI with A498 renal, with HCC-2998 colon, in the assay on OVCAR-3 ovarian, in the assay on OVCAR-4 ovarian, in the assay on RPMI-8226 leukemia and in the assay on SNB-19 CNS was more than 50 µM each time. Moreover, the TGI in the assay on SW-620 colon is more than 50 µM.
